The half-life is how long it takes for the measured level to halve.

In one series the test system is ozone-induced AHR. The experiment in a line: Ozone-induced AHR mouse model (asthma precipitated by air pollution). In kind it is in vivo. An excerpt:
(§1) We have carried out experiments with GRP blockade given as an intraperitoneal (IP) injection to prevent and/or treat AHR in several different mouse models of airways hyperreactivity (AHR) and/or inflammation: ozone-induced AHR as a model for asthma precipitated by air pollution, ovalbumin (OVA)-induced AHR as a model of allergic airways inflammation, and endotoxin (lipopolysaccharide, LPS)-induced AHR as a first step towards assessing infectious causes of asthma. These experiments used the small molecule GRP inhibitor, 77427, or a monoclonal anti-GRP blocking antibody, 2A 11. […] In the near future, we hope to test GRP blockade in additional mouse models of asthma, including: Mycoplasma infection, respiratory syncytial virus (RSV) infection, Aspergillus infection, and house dust mite exposure.
(§2) In contrast, mice were treated with dexamethasone (Dex), the standard of care for asthma, before ozone exposure.

For series [1], the system named is chronic radiation pneumonitis. As to the kind of experiment: Chronic radiation pneumonitis in mice after 15 Gy thoracic radiation. It counts as in vivo. Particulars: 500 nM 77427 twice a week IP following 15 Gy thoracic radiation. The method, then: We can also block chronic radiation pneumonitis in mice given 500 nM 77427 twice a week IP following 15 Gy thoracic radiation.

A further series deals with neovascularization. Particulars: on a molar basis (≈500 nM), compared with MoAb-2A11; cited from earlier work.
Series [2] relates to ovalbumin (OVA)-induced AHR. The experiment in a line: Ovalbumin (OVA)-induced AHR mouse model (allergic airways inflammation). It counts as in vivo.
From the text: as §1, §2

The subject of the next series is cytokines. The experiment in a line: Cytokine levels in ozone and ovalbumin in vivo mouse models of asthma. An excerpt:
We have carried out experiments with GRP blockade given as an intraperitoneal (IP) injection to prevent and/or treat AHR in several different mouse models of airways hyperreactivity (AHR) and/or inflammation: ozone-induced AHR as a model for asthma precipitated by air pollution, ovalbumin (OVA)-induced AHR as a model of allergic airways inflammation, and endotoxin (lipopolysaccharide, LPS)-induced AHR as a first step towards assessing infectious causes of asthma. […] The invention would extend to any compound able to block GRP signaling by either binding to GRP itself or to the GRP receptor, which are part of the same signal transduction cascade. In the near future, we hope to test GRP blockade in additional mouse models of asthma, including: Mycoplasma infection, respiratory syncytial virus (RSV) infection, Aspergillus infection, and house dust mite exposure.

The target in series [3] is T1, GRP (Homo sapiens, UniProt P07492).
T1 sequence (P07492 24-50 limits assumed): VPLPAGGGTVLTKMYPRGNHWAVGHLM
Particulars: cited from earlier work.

Series [4] relates to endothelial cell tube formation. The note with it: Matrigel support matrix; cited from earlier work.
The test system of a further series is GRP-induced angiogenesis. Particulars: in vitro and in vivo; cited from earlier work.
Series [5] addresses T1, GRP. The note with it: prevention of antibody-ligand interaction; blocking GRP-induced IP3 production and Ca2+ flux; cited from earlier work. In general terms: Calcium flux is commonly read through the fluorescence of an indicator in the cells.
The conditions of series [6]: F. Cuttitta, unpublished data; cited from earlier work.
The next series deals with GRP receptor. The note with it: lung slices from one non-human primate, 2 slices MCh + antagonist; morphological assessment; cited from earlier work.

Where two headings read alike, the source gives them in different places.

On to `C[C@@H]1C[C@H]2[C@@H]3CCC4=CC(=O)C=C[C@]4(C)[C@@]3(F)[C@@H](O)C[C@]2(C)[C@@]1(O)C(=O)CO` [Dex, dexamethasone], for which, in the series with ozone-induced AHR (treatment before ozone, IL-6, IL-12 (p40), TNFα), the “number of cytokines with significantly increased levels” value was determined as 3.

Regarding `Nc1nc(Cl)cc(NCCO)n1` [compound 77427], in [1], the chronic radiation pneumonitis entry is reported as “block”. The “suppressive response in stopping neovascularization” value in the series with neovascularization is “equivalent suppressive response as MoAb-2A11”. Also, the “airway hyperreactivity (AHR)” value (in series [2]; in the series on ozone-induced AHR (ozone model)) was “abrogates” throughout. Further, the airways inflammation entry (in [2]; in the series on ozone-induced AHR (ozone model)) was “abrogates” in each case. In the series with cytokines (FIG. 2A), the “Interleukin-2 (IL-2)” value is reported as “suppression”. The TNF-alpha result in the series on cytokines (FIG. 2C) is “suppression”. In addition, in the series on cytokines (FIG. 2D), the GM-CSF entry is given as “suppression”. In the series with cytokines (FIG. 2E), the IL-4 result is “suppression”. The IL-5 result in the series with cytokines (FIG. 2F) is “suppression”. In the series on cytokines (FIG. 2G), the IL-13 entry was “suppression”. Moreover, in the series with cytokines (FIG. 2H), the IL-6 entry is recorded as “suppression”. Moreover, the IL-17 result in the series on cytokines (FIG. 2I) is listed as “suppression”. Besides, the MCP-1 entry in the series on cytokines (FIG. 2J) is listed as “suppression”. Moreover, the KC result in the series with cytokines (FIG. 2K) was “suppression”. The VEGF entry in the series on cytokines (FIG. 2L) is listed as “suppression”. Also, the “cytokines tested whose increased levels are significantly suppressed (P<0.0001) or abrogated” value in the series with cytokines (ozone and ovalbumin models, cytokines represent at least 5 inflammatory cell types) is listed as 21 of 21. For the same compound, the “blocks % of GRP” value was 50% on GRP [3] (5 nM 77427), 70% on GRP [3] (50 nM 77427) and 95% on GRP [3] (500 nM 77427). Further, the “blocking of GRP mediated endothelial cell tube formation” value in [4] was “effective blocker”. Besides, the “inhibition of GRP-induced angiogenesis” value in the series with GRP-induced angiogenesis is “potent inhibitor”. Further, at GRP [5], the “mimetic to MoAb-2A11 / antagonist to GRP in screen” value is “ideal mimetic to MoAb-2A11”. Moreover, in series [6], the half-life was around 240 h.

For [Leu^13-(ψ-CH2NH)-Leu^14]-bombesin, the “MCh-induced reduction of internal airway diameter (bronchoconstriction) of bronchi” value in the series on GRP receptor is “slightly reduced”.
